Measured values reported in PMC7162859 (Scientific Reports, 2020).
Read-outs that look alike come from different tables or passages of the source.

What was measured:
[1] = in vivo; details: FVB, mouse, iv, 5 mg/kg
Procedure: A single intravenous bolus dose of 5 mg/kg ispinesib (vehicle: ethanol, Tween 80 and distilled water in volume ratio of 20:2.5:77.5) was administered to FVB wild-type and Mdr1a/b^−/− Bcrp1^−/− mice. This was followed by collection of whole blood and brain samples at 0.17, 0.5, 1, 2, 4, 8 and 15 hours post-dose, and blood samples were centrifuged to separate plasma for further analysis. […] The drug concentrations in all samples were measured by a specific and sensitive LC-MS/MS assay for ispinesib.
(§3) All dosing solutions were prepared on the day of the study. A serial sacrifice (destructive sampling) design was employed for sample collection. In all the pharmacokinetic studies conducted in non-tumor bearing FVB mice, the group size was 4 at each sampling time point (n = 4). At pre-determined time points, mice were euthanized using a carbon dioxide chamber. Blood was collected by cardiac puncture and transferred to sample tubes coated with heparin. The whole brain was isolated from skull and rinsed with ice-cold distilled water, and superficial meninges were removed by blotting with tissue paper. Plasma was separated by centrifugation of blood samples at 3500 rpm and 4°C for 15 minutes. […] All the samples were stored at -80°C, until further analysis. The concentrations of ispinesib in all the samples were analyzed by LC-MS/MS. Assuming a vascular volume of 1.4% in mouse brain ^5, the concentrations in brain were corrected for residual drug in brain vasculature.
Kp=AUCbrainAUCplasma (Equation 3)
DA= Kp, knockoutKp, wildtype (Equation 5)
Kp,uu=AUCbrain X fu, brain AUCplasma X fu, plasma (Equation 6)
The pharmacokinetic parameters from the concentration-time profiles in plasma and brain were determined by non-compartmental analysis (NCA) using Phoenix WinNonlin version 6.4 (Certara USA, Inc., Princeton, NJ). The AUCplasma and AUCbrain were calculated using the linear trapezoidal method. The standard errors around the mean of AUC was estimated by the sparse sampling module in WinNonlin ^6.

[2] = system: PTEN(-/-) GBM cells; test: In vitro cytotoxicity assay (CellTiter-Glo, 72 hours); type: cell-based, murine; details: for EC50: Mus musculus, 72 h, 72 hours, read-out: Ispinesib EC50
Procedure: (§1) TP53(−/−) and PTEN(−/−) cells were seeded into 96-well plates (pre-coated with fibronectin) at a density of 5,000 cells per well in DMEM media with 0.5% FBS, 1% nitrogen supplement, 10 ng/ml of FGF and 10 ng/ml of PDGFAA. Human GBM1A cells were seeded into 96 well plates (pre-coated with laminin) in DMEM media with 1% neuroPlex supplement, 20 ng/ml of EGF and 20 ng/ml of […]. After 24 hours (~70% confluency), cells were exposed to ispinesib (n = 10 wells per concentration) from 0.025–1000 nM with or without 500 nM elacridar co-treatment. The plates were incubated for 72 hours, cell viability measured using CellTiter-Glo ATP-based assay, and read on a luminometer. The dose-response data were fit to the Hill equation.
(§2) In vitro potency data was fitted to “log(inhibitor) vs. normalized response - variable slope” equation in GraphPad Prism version 6.04 (GraphPad, La Jolla, CA) to determine half-maximal effective concentration (EC50).

[3] = system: TP53(-/-) GBM cells; test: as above; type: cell-based, murine; details: for EC50: Mus musculus, 72 h, 72 hours, read-out: Ispinesib EC50
Procedure: as §1, §2

[4] = system: orthotopic GBM1A tumors; test: Pharmacodynamics: monopolar spindle formation in orthotopic GBM1A tumors; type: in vivo, NSG mice; details: single ip dose 10 mg/kg each drug; 8 hours
Procedure: Female NSG mice were intracerebrally injected with 500,000 GBM1A cells at coordinates X = 1.5 mm, Y = 1.5 mm and Z = 2.5 mm relative to the bregma, and tumor growth was monitored by bioluminescence imaging. After 4 weeks (tumor size of about 2 × 10^9 photons/sec), animals were randomized to receive single ip dose of microemulsion vehicle, 10 mg/kg elacridar, 10 mg/kg ispinesib, or a combination of 10 mg/kg ispinesib and 10 mg/kg elacridar (n = 8–10). At 8 hours following treatment, mice were perfused and whole brains were isolated. The samples were processed for immunofluorescence by staining for tubulin with an alpha-tubulin antibody (Cell signaling, Cat#2125) and counter staining with DAPI for visualizing nuclei. Images were scanned and counted for cells with monopolar spindles.

[5] = Rapid equilibrium dialysis for unbound fractions in mouse plasma and brain homogenate; type: in vitro ADME; details: FVB, 37 °C
Procedure: Rapid equilibrium dialysis was used to determine unbound fractions with modifications[48],[49] to manufacturer’s protocol (Thermo Fisher Scientific). Mouse plasma and brain homogenates (in 3 volumes of PBS, w/v) were spiked with 0.1 mg/mL ispinesib to obtain final concentrations of 1 µM. 300 µL of drug-spiked matrices were placed in donor chamber, and 500 µL of PBS was placed in receiver chamber of inserts (8 kDa MWCO), in triplicates. The base plate with inserts was incubated on Bioshaker at 37 °C and 1000 rpm for 4 hours. Ispinesib concentrations in samples were analyzed by liquid-chromatography tandem mass-spectrometry (LC-MS/MS).
The unbound fractions of ispinesib in plasma and brain were determined by using rapid equilibrium dialysis (RED) technique, with some alterations ^1,2 to manufacturer’s protocol (Thermo Fisher Scientific). […] RED experiments were initially conducted at 1, 2, 5 and 10 µM concentrations of ispinesib with 4 and 6 hour time points. […] Consequently, unbound fractions at 1 µM concentration and 4 hr time point were utilized for estimation of Kp,uu and free concentrations of ispinesib. […] The samples collected from the donor and receiver chambers after dialysis for 4 hours were stored at -80°C and analyzed for ispinesib concentrations by LC-MS/MS analysis. […]

[6] = system: orthotopic GBM1A tumors; type: in vivo; details: 10 mg/kg ip each drug once every 4 days for 28 days
Procedure: Female NSG mice were intracranially implanted with 500,000 luciferase expressing GBM1A cells (transduced with lentiviral particles expressing GFP-Luciferase). After 7 days, animals were randomized into four groups and ip administered with microemulsion vehicle, 10 mg/kg elacridar, 10 mg/kg ispinesib, or a combination of 10 mg/kg ispinesib and 10 mg/kg elacridar, once every 4 days for 28 days (n = 10). The dosing schedule of once every 4 days was based on our previously publication with ispinesib. Tumor growth was monitored by bioluminescence imaging and animals were followed for survival.
The progression of tumor growth was monitored by bioluminescence imaging (BLI) using an IVIS system. Mice that underwent stereotactic injection with GFP-luciferase expressing GBM1A cells were imaged twice a week. Ten minutes prior to imaging, mice were intraperitoneally injected with d-luciferin at 75 mg/kg body weight (3 mL/kg injection volume). Animals were immobilized using 1.5% − 3.0% isoflurane provided by nose cones within the imager and were kept warm using a heated stage set at 37 °C during the imaging procedure. Following imaging for about 5 minutes, animals were removed from the IVIS chamber and monitored until they fully recovered from anesthesia.

[7] = in vivo; details: Sprague-Dawley, rat, ip, 10 mg/kg
Procedure: (§4) Blood and brain (tumor-bearing) samples were collected at 2 hours post-dose, and whole brains were immediately flash frozen.
(§5) A fluorescence-guided punch biopsy technique (Supplementary Fig. S2) was developed and employed for isolation of tumor core, tumor rim (brain adjacent to tumor, BAT) and normal (non-tumor) brain regions from brain samples. Briefly, an acrylic adult rat brain matrix (WPI) was used to obtain thick coronal brain sections (1–2 mm thick) through the Td-Tomato labelled tumors. The tumor regions were identified by relative fluorescence signal (Nikon AZ100M microscope), and biospy punches with varying diameters were utilized to isolate tumor core (tumor region with fluorescence signal 5-fold or higher relative to background signal) and rim (region adjacent to tumor core with fluorescence signal 3 to 5-fold higher relative to background) (Supplementary Fig. S3). The samples from individual brains were pooled together for analysis of ispinesib concentrations by LC-MS/MS.
(§6) The tumor-bearing brain samples were harvested at 2 hours post dose (n = 9). Coronal sections that were 1-2 mm thick were obtained using an acrylic brain matrix, and a fluorescence microscopy guided punch biopsy method was utilized for the isolation of tumor core, tumor rim (brain adjacent to tumor, BAT) and normal (non-tumor) brain regions. The tumor core was identified as the tumor region with a fluorescence signal that was 5-fold or higher relative to the background signal. The tumor rim was defined as the region around the tumor core with a fluorescence signal 3 to 5-fold higher relative to the background signal. The brain tissue with a fluorescence signal similar to or lower than the background fluorescence was collected as the normal brain. The samples collected from each brain were pooled together, and ispinesib concentrations were determined using LC-MS/MS.

[8] = FVB wild-type; for Fold increase in Kp: 10 mg/kg i.p. ispinesib with or without 10 mg/kg i.p. elacridar; for increase of brain-to-plasma concentration ratio / brain delivery of ispinesib with elacridar co-administration: 10 mg/kg ip ispinesib + 10 mg/kg elacridar vs ispinesib alone, 2 and 6 hours, 10 mg/kg
Procedure: (§7) Blood and brain specimens were harvested at 2 and 6 hours post-dose.
as §3
Kp=CbrainCplasma (Equation 4)

[9] = system: GBM1A cells; test: In vitro cytotoxicity assay (CellTiter-Glo, 72 hours); type: cell-based, human; details: for EC50: Homo sapiens, 72 h, 72 hours, read-out: Ispinesib EC50
Procedure: as §1, §2

[10] = in vivo; details: FVB, mouse, 10 mg/kg; for concentration at 2 h / concentration at 6 h: intraperitoneal
Procedure: as §7, §3
Kp=CbrainCplasma (Equation 4)

[11] = GBM-bearing rats; for Fold increase in Kp over the Kp in normal brain of ispinesib treated group: 10 mg/kg ip, 2 hours; for increase in Kp when elacridar is co-administered with ispinesib: vs ispinesib alone
Procedure: as §4, §5, §6

[12] = 5 mg/kg iv bolus, Mdr1a/b-/- Bcrp1-/- mice

SMILES: Cc1ccc(C(=O)N(CCCN)[C@@H](c2nc3cc(Cl)ccc3c(=O)n2Cc2ccccc2)C(C)C)cc1 [Ispinesib, N-(3-aminopropyl)-N-[(1 R)-1-(3-benzyl-7-chloro-4-oxoquinazolin-2-yl)-2-methylpropyl]-4-methylbenzamide]
- Kp uu ([1]; brain and plasma): 0.02
- Kp uu ([1]; brain/plasma): 1
- AUC(0-inf) ([1]; plasma): 5800 ng·h/mL
- AUC(0-t) ([1]; plasma): 7500 ± 400 ng·h/mL
- clearance ([1]; plasma): 9.9 mL/min/kg
- half-life ([1]; plasma): 4.8 h
- EC50 ([2]; [Elacridar] 0 nM): 10 ± 0.9 nM
- EC50 ([2]; [Elacridar] 500 nM): 3.3 ± 0.4 nM
- Hill Coefficient ([2]; [Elacridar] 0 nM): 0.6 ± 0.02
- Hill Coefficient ([2]; [Elacridar] 500 nM): 0.4 ± 0.01
- EC50 ([3]; [Elacridar] 0 nM): 14.4 ± 1.2 nM
- EC50 ([3]; [Elacridar] 500 nM): 3.9 ± 0.5 nM
- Hill Coefficient ([3]; [Elacridar] 0 nM): 0.6 ± 0.02
- Hill Coefficient ([3]; [Elacridar] 500 nM): 0.4 ± 0.01
- predicted unbound concentrations in the brain compared with in vitro EC50 against GBM1A (5 mg/kg intravenous, FVB wild-type mice, from in vivo concentrations and fu): appreciably below the EC50
- Kp, brain-to-plasma AUC ratio (total drug) [12]: 12.12
- Kp,uu, unbound partition coefficient [12]: 1.01
- Kp, brain-to-plasma AUC ratio (total drug) (5 mg/kg iv bolus, wild-type mice): 0.23
- monopolar spindles in tumor core (tubulin/DNA staining) [4]: occasional monopoles
- fraction unbound at 4 h, 1 µM ([5]; mouse brain homogenate, corrected for dilution, read-out: percentage of unbound drug in brain): 0.0005 ± 0.0002
- fraction unbound at 4 h, 1 µM ([5]; mouse plasma, read-out: percentage of unbound drug in plasma): 0.006 ± 0.001
- tumor doubling time (bioluminescence, single exponential fit) ([6]; days 7–37): 9.4 days
- median survival ([6]; vehicle 61 days): 74 days
- Kp at 2 h ([7]; normal brain): 0.11 ± 0.09
- concentration at 2 h ([7]; normal brain): 60 ± 40 ng/mL
- Kp at 2 h ([7]; tumor core): 0.77 ± 0.55
- concentration at 2 h ([7]; tumor core): 380 ± 240 ng/mL
- Kp at 2 h ([7]; tumor rim): 0.27 ± 0.18
- concentration at 2 h ([7]; tumor rim): 150 ± 110 ng/mL
- Fold increase in Kp ([8]; 2 hrs): 1
- Fold increase in Kp ([8]; 6 hrs): 1
- increase of brain-to-plasma concentration ratio / brain delivery of ispinesib with elacridar co-administration [8]: approximately 10 fold
- increase of brain-to-plasma concentration ratio / brain delivery of ispinesib with elacridar co-administration ([8]; listed as ispinesb): 10 fold
- EC50 ([9]; [Elacridar] 0 nM): 1.4 ± 0.2 nM
- EC50 ([9]; [Elacridar] 500 nM): 0.5 ± 0.04 nM
- Hill Coefficient ([9]; [Elacridar] 0 nM): 1.8 ± 0.3
- Hill Coefficient ([9]; [Elacridar] 500 nM): 1.7 ± 0.2
- Kp at 2 h ([10]; brain and plasma, ip): 0.1 ± 0.08
- Kp at 6 h ([10]; brain and plasma, ip): 0.38 ± 0.14
- concentration at 2 h ([10]; brain): 80 ± 20 ng/mL
- concentration at 6 h ([10]; brain): 270 ± 90 ng/mL
- concentration at 2 h ([10]; plasma): 1110 ± 570 ng/mL
- concentration at 6 h ([10]; plasma): 730 ± 110 ng/mL
- Fold increase in Kp over the Kp in normal brain of ispinesib treated group ([11]; Normal brain): 1
- Fold increase in Kp over the Kp in normal brain of ispinesib treated group ([11]; Tumor core): 7
- Fold increase in Kp over the Kp in normal brain of ispinesib treated group ([11]; Tumor rim): 2.5
- increase in Kp when elacridar is co-administered with ispinesib ([11]; tumor core): 4 fold
- increase in Kp when elacridar is co-administered with ispinesib ([11]; tumor rim and normal brain regions): approximately 10 fold
